Here are results for two molecules from article PMC6150336, “Hepatotoxicity Induced by Sophora flavescens and Hepatic Accumulation of Kurarinone, a Major Hepatotoxic Constituent of Sophora flavescens in Rats” (Molecules : A Journal of Synthetic Chemistry and Natural …, 2017).

The term EC50 denotes the concentration giving half of the maximal effect.

Data set [1] is described as follows: ESF tissue distribution study in rats. Format: in vivo, rat. Particulars: for AUC(0-t): male, rat. The method, then: Male rats were divided into five groups corresponding to five experimental time points (n = 3 in each group). Rats under urethane anesthesia were sacrificed by bleeding from the abdominal aorta and hepatic portal vein at 15 min, 30 min, 1 h, 2 h, and 4 h time points (3 rats/time point) after a p.o. dose of ESF (2.5 g/kg). The liver, kidneys, heart, skeletal muscles, small intestine, and bile were harvested and homogenized in threefold volume of ice-cold saline. Kurarinone levels in vivo in the plasma and liver were examined at the time points when blood biochemistry parameters were measured. Kurarinone and kurarinone glucuronides levels were detected by LC-MS/MS [24, 25].

The conditions of data set [2]: method and reference not given; cited from earlier work.
Data set [3] relates to HL-7702 cells. Description: Effect of kurarinone on triglyceride levels in HL-7702 cells. Type of data set: cell-based, human. The following applies: HL 7702 cells exposed for 24 h. The method, then:
HL-7702 cells were cultured in RPMI-1640 medium (Gibco, Grand Island, NY, USA) containing 10% fetal bovine serum (FBS) (Gibco, USA) in a humidified atmosphere of 5% CO2 at 37 °C. The cells were seeded in 24-well plates, cultured for 24 h, and incubated with kurarinone (1, 8, 16, 24, 32, 44, and 60 μM) dissolved in RPMI-1640 medium without FBS for 24 h. Triglyceride levels were determined using a triglyceride assay kit (Nanjing Jiancheng Bioengineering Institute) according to the manufacturer’s instructions.

Setting [4] is: AUC0–4h after oral administration of ESF (2.5 g/kg) in rats.

Like-named read-outs stand apart in the source and are kept apart here.

Turning to kurarinone glucuronide, in data set [1] (setting [4]), the “AUC0–t Biliary Secretion” value was 93.3 µM·h, the “AUC0–t Body Plasma” value was determined as 15.3 µM·h, the “AUC0–t Heart” value is 0.1 µM·h and the “AUC0–t Intestine” value was 2.2 µM·h. Further, in data set [1] (setting [4]), the “AUC0–t Kidney” value stood at 0.7 µM·h, the “AUC0–t Liver” value came out at 1.4 µM·h, the “AUC0–t Protal Plasma” value was 25.0 µM·h and the “AUC0–t Skeletal Muscle” value was 0.4 µM·h. For the same molecule, the “Form of kurarinone in plasma and bile” value in data set [1] (ESF-treated rats) is reported as “dominant form”.

As for `C=C(C)[C@H](CC=C(C)C)Cc1c(O)cc(OC)c2c1O[C@H](c1ccc(O)cc1O)CC2=O` [Kurarinone, kurarinone], the log p in data set [2] is reported as 5.6. The Triglyceride accumulation result in data set [3] (1-60 μM) is listed as “accumulated dose-dependently”. In addition, the EC50 in data set [3] (Homo sapiens, L02, read-out: EC50, increase of triglyceride) was 31.2 ± 2.47 µM. The “Exposure of liver compared with plasma” value in data set [1] (ESF (2.5 g/kg) orally in rats) is “much higher”. The “Form of kurarinone in visceral organs” value in data set [1] (ESF-treated rats) is reported as “predominant”. Further, the AUC(0-t) was 0.8 µM·h in data set [1] (bile, AUC0–4h after oral administration of ESF (2.5 g/kg) in rats, read-out: AUC0–t Biliary Secretion); 4.7 µM·h in data set [1] (heart, AUC0–4h after oral administration of ESF (2.5 g/kg) in rats, read-out: AUC0–t Heart); 4.4 µM·h in data set [1] (hepatic portal vein plasma, AUC0–4h after oral administration of ESF (2.5 g/kg) in rats, read-out: AUC0–t Protal Plasma); 5.4 µM·h in data set [1] (kidney, AUC0–4h after oral administration of ESF (2.5 g/kg) in rats, read-out: AUC0–t Kidney); 45.5 µM·h in data set [1] (liver, AUC0–4h after oral administration of ESF (2.5 g/kg) in rats, read-out: AUC0–t Liver); 6.9 µM·h in data set [1] (skeletal muscle, AUC0–4h after oral administration of ESF (2.5 g/kg) in rats, read-out: AUC0–t Skeletal Muscle). Also, the AUC(0-t) was 21.4 µM·h in data set [1] (small intestine, AUC0–4h after oral administration of ESF (2.5 g/kg) in rats, read-out: AUC0–t Intestine) and 2.4 µM·h in data set [1] (systemic (body) plasma, AUC0–4h after oral administration of ESF (2.5 g/kg) in rats, read-out: AUC0–t Body Plasma).
